{"source": "ChEMBL document CHEMBL5303304", "about": "“EUbOPEN Chemogenomics Library - IncuCyte” (2023); further: unitless GR value; below 1 slowed growth and below 0 cell loss", "assay_type_in_all_cases": "toxicity, cell-based", "key": {"HEK-293T": {"test_system": "HEK-293T", "assay": "Incucyte cell viability with HEK293T", "details": "human, 10 µM, compound concentration 10 uM"}, "U2OS": {"test_system": "U2OS", "assay": "Incucyte cell viability with U2OS", "details": "human, 10 µM, compound concentration 10 uM"}, "Fibroblast": {"test_system": "Fibroblast", "assay": "Incucyte cell viability with human fibroblast", "details": "10 µM, compound concentration 10 uM"}}}
{"smiles": "c1ccc(C2CCN(c3cnc4c(N5CCOCC5)nccn34)CC2)cc1", "values": [{"measurement": "Growth Rate", "setting": "HEK-293T; 6 h, replicate number 1", "value": 0.74}, {"measurement": "Growth Rate", "setting": "HEK-293T; 6 h, replicate number 2", "value": 0.9}, {"measurement": "Growth Rate", "setting": "HEK-293T; 12 h, replicate number 1", "value": 0.94}, {"measurement": "Growth Rate", "setting": "HEK-293T; 18 h, replicate number 2", "value": 0.99}, {"measurement": "Growth Rate", "setting": "U2OS; 6 h, replicate number 1", "value": 0.91}, {"measurement": "Growth Rate", "setting": "U2OS; 12 h, replicate number 1", "value": 0.92}, {"measurement": "Growth Rate", "setting": "U2OS; 18 h, replicate number 1", "value": 0.9}, {"measurement": "Growth Rate", "setting": "Fibroblast; 0 h, replicate number 1", "value": -0.87}, {"measurement": "Growth Rate", "setting": "Fibroblast; 6 h, replicate number 2", "value": 0.96}, {"measurement": "Growth Rate", "setting": "Fibroblast; 12 h, replicate number 2", "value": 0.56}, {"measurement": "Growth Rate", "setting": "Fibroblast; 18 h, replicate number 2", "value": 0.64}, {"measurement": "Growth Rate", "setting": "Fibroblast; 24 h, replicate number 1", "value": 1}]}
{"smiles": "Cc1cn([C@H](C)CC#N)c(=O)c2cc(Cn3nc(C(F)F)cc3Cl)nn12", "values": [{"measurement": "Growth Rate", "setting": "HEK-293T; 6 h, replicate number 1", "value": 0.81}, {"measurement": "Growth Rate", "setting": "HEK-293T; 6 h, replicate number 2", "value": 0.66}, {"measurement": "Growth Rate", "setting": "HEK-293T; 12 h, replicate number 2", "value": 0.82}, {"measurement": "Growth Rate", "setting": "HEK-293T; 18 h, replicate number 2", "value": 0.9}, {"measurement": "Growth Rate", "setting": "HEK-293T; 24 h, replicate number 1", "value": 0.97}, {"measurement": "Growth Rate", "setting": "HEK-293T; 24 h, replicate number 2", "value": 0.89}, {"measurement": "Growth Rate", "setting": "U2OS; 6 h, replicate number 1", "value": 0.38}, {"measurement": "Growth Rate", "setting": "U2OS; 12 h, replicate number 1", "value": 0.34}, {"measurement": "Growth Rate", "setting": "U2OS; 18 h, replicate number 1", "value": 0.52}, {"measurement": "Growth Rate", "setting": "U2OS; 24 h, replicate number 1", "value": 0.64}, {"measurement": "Growth Rate", "setting": "Fibroblast; 0 h, replicate number 1", "value": -1}, {"measurement": "Growth Rate", "setting": "Fibroblast; 6 h, replicate number 1", "value": 0.89}, {"measurement": "Growth Rate", "setting": "Fibroblast; 6 h, replicate number 2", "value": 0.78}, {"measurement": "Growth Rate", "setting": "Fibroblast; 12 h, replicate number 2", "value": 0.58}, {"measurement": "Growth Rate", "setting": "Fibroblast; 18 h, replicate number 2", "value": 0.99}, {"measurement": "Growth Rate", "setting": "Fibroblast; 24 h, replicate number 1", "value": 0.93}]}
{"smiles": "CN1CCN(C(=O)c2ccc3cc2OCCOCCNc2ccn4ncc-3c4n2)CC1", "values": [{"measurement": "Growth Rate", "setting": "HEK-293T; 6 h, replicate number 1", "value": 0.93}, {"measurement": "Growth Rate", "setting": "HEK-293T; 6 h, replicate number 2", "value": 0.6}, {"measurement": "Growth Rate", "setting": "HEK-293T; 12 h, replicate number 2", "value": 0.93}, {"measurement": "Growth Rate", "setting": "HEK-293T; 18 h, replicate number 1", "value": 0.93}, {"measurement": "Growth Rate", "setting": "HEK-293T; 18 h, replicate number 2", "value": 0.85}, {"measurement": "Growth Rate", "setting": "HEK-293T; 24 h, replicate number 1", "value": 0.92}, {"measurement": "Growth Rate", "setting": "HEK-293T; 24 h, replicate number 2", "value": 0.89}, {"measurement": "Growth Rate", "setting": "U2OS; 0 h, replicate number 1", "value": -0.07}, {"measurement": "Growth Rate", "setting": "U2OS; 18 h, replicate number 1", "value": 0.81}, {"measurement": "Growth Rate", "setting": "Fibroblast; 0 h, replicate number 2", "value": 0.92}, {"measurement": "Growth Rate", "setting": "Fibroblast; 6 h, replicate number 1", "value": 0.73}, {"measurement": "Growth Rate", "setting": "Fibroblast; 6 h, replicate number 2", "value": 0.92}]}
{"smiles": "Nc1ncc2c(n1)-c1c([nH]c3ccc(C4CC4)cc13)CCCC2", "values": [{"measurement": "Growth Rate", "setting": "HEK-293T; 6 h, replicate number 1", "value": 0.37}, {"measurement": "Growth Rate", "setting": "HEK-293T; 6 h, replicate number 2", "value": 0.69}, {"measurement": "Growth Rate", "setting": "HEK-293T; 12 h, replicate number 1", "value": 0.63}, {"measurement": "Growth Rate", "setting": "HEK-293T; 12 h, replicate number 2", "value": 0.69}, {"measurement": "Growth Rate", "setting": "HEK-293T; 18 h, replicate number 1", "value": 0.74}, {"measurement": "Growth Rate", "setting": "HEK-293T; 18 h, replicate number 2", "value": 0.8}, {"measurement": "Growth Rate", "setting": "HEK-293T; 24 h, replicate number 1", "value": 0.71}, {"measurement": "Growth Rate", "setting": "HEK-293T; 24 h, replicate number 2", "value": 0.85}, {"measurement": "Growth Rate", "setting": "U2OS; 0 h, replicate number 1", "value": -0.99}, {"measurement": "Growth Rate", "setting": "U2OS; 0 h, replicate number 2", "value": 0.47}, {"measurement": "Growth Rate", "setting": "U2OS; 6 h, replicate number 2", "value": -0.85}, {"measurement": "Growth Rate", "setting": "U2OS; 12 h, replicate number 1", "value": 0.85}, {"measurement": "Growth Rate", "setting": "U2OS; 12 h, replicate number 2", "value": 0.64}, {"measurement": "Growth Rate", "setting": "U2OS; 18 h, replicate number 1", "value": 0.93}, {"measurement": "Growth Rate", "setting": "U2OS; 18 h, replicate number 2", "value": 0.94}, {"measurement": "Growth Rate", "setting": "U2OS; 24 h, replicate number 1", "value": 1}, {"measurement": "Growth Rate", "setting": "U2OS; 24 h, replicate number 2", "value": 0.88}, {"measurement": "Growth Rate", "setting": "Fibroblast; 6 h, replicate number 1", "value": 0.08}, {"measurement": "Growth Rate", "setting": "Fibroblast; 6 h, replicate number 2", "value": 0.5}, {"measurement": "Growth Rate", "setting": "Fibroblast; 12 h, replicate number 1", "value": 0.76}, {"measurement": "Growth Rate", "setting": "Fibroblast; 12 h, replicate number 2", "value": 0.75}, {"measurement": "Growth Rate", "setting": "Fibroblast; 18 h, replicate number 2", "value": 0.79}]}
{"smiles": "CCN(CC)C/C=C/C(=O)Nc1cc2c(Nc3ccc(F)c(Cl)c3)ncnc2cc1OCC1CC1", "values": [{"measurement": "Growth Rate", "setting": "HEK-293T; 6 h, replicate number 1", "value": -0.54}, {"measurement": "Growth Rate", "setting": "HEK-293T; 6 h, replicate number 2", "value": -0.45}, {"measurement": "Growth Rate", "setting": "HEK-293T; 12 h, replicate number 1", "value": -0.39}, {"measurement": "Growth Rate", "setting": "HEK-293T; 12 h, replicate number 2", "value": -0.32}, {"measurement": "Growth Rate", "setting": "HEK-293T; 18 h, replicate number 1", "value": -0.32}, {"measurement": "Growth Rate", "setting": "HEK-293T; 18 h, replicate number 2", "value": -0.35}, {"measurement": "Growth Rate", "setting": "HEK-293T; 24 h, replicate number 1", "value": -0.25}, {"measurement": "Growth Rate", "setting": "HEK-293T; 24 h, replicate number 2", "value": -0.29}, {"measurement": "Growth Rate", "setting": "U2OS; 0 h, replicate number 1", "value": -0.62}, {"measurement": "Growth Rate", "setting": "U2OS; 6 h, replicate number 1", "value": 0.31}, {"measurement": "Growth Rate", "setting": "U2OS; 6 h, replicate number 2", "value": 0.36}, {"measurement": "Growth Rate", "setting": "U2OS; 12 h, replicate number 1", "value": -0.19}, {"measurement": "Growth Rate", "setting": "U2OS; 12 h, replicate number 2", "value": 0.08}, {"measurement": "Growth Rate", "setting": "U2OS; 18 h, replicate number 1", "value": -0.19}, {"measurement": "Growth Rate", "setting": "U2OS; 18 h, replicate number 2", "value": 0.06}, {"measurement": "Growth Rate", "setting": "U2OS; 24 h, replicate number 1", "value": -0.24}, {"measurement": "Growth Rate", "setting": "U2OS; 24 h, replicate number 2", "value": -0.01}, {"measurement": "Growth Rate", "setting": "Fibroblast; 0 h, replicate number 2", "value": -0.83}, {"measurement": "Growth Rate", "setting": "Fibroblast; 6 h, replicate number 1", "value": 0.22}, {"measurement": "Growth Rate", "setting": "Fibroblast; 6 h, replicate number 2", "value": -0.01}, {"measurement": "Growth Rate", "setting": "Fibroblast; 12 h, replicate number 1", "value": 0}, {"measurement": "Growth Rate", "setting": "Fibroblast; 12 h, replicate number 2", "value": -0.26}, {"measurement": "Growth Rate", "setting": "Fibroblast; 18 h, replicate number 1", "value": -0.12}, {"measurement": "Growth Rate", "setting": "Fibroblast; 18 h, replicate number 2", "value": -0.4}, {"measurement": "Growth Rate", "setting": "Fibroblast; 24 h, replicate number 1", "value": -0.22}, {"measurement": "Growth Rate", "setting": "Fibroblast; 24 h, replicate number 2", "value": -0.46}]}
{"smiles": "CN(C)C/C=C/C(=O)Nc1cc2c(Nc3ccc(F)c(Cl)c3)ncnc2cc1OC[C@@H]1CCCO1", "values": [{"measurement": "Growth Rate", "setting": "HEK-293T; 6 h, replicate number 1", "value": -0.57}, {"measurement": "Growth Rate", "setting": "HEK-293T; 6 h, replicate number 2", "value": -0.55}, {"measurement": "Growth Rate", "setting": "HEK-293T; 12 h, replicate number 1", "value": -0.36}, {"measurement": "Growth Rate", "setting": "HEK-293T; 12 h, replicate number 2", "value": -0.34}, {"measurement": "Growth Rate", "setting": "HEK-293T; 18 h, replicate number 1", "value": -0.27}, {"measurement": "Growth Rate", "setting": "HEK-293T; 18 h, replicate number 2", "value": -0.29}, {"measurement": "Growth Rate", "setting": "HEK-293T; 24 h, replicate number 1", "value": -0.2}, {"measurement": "Growth Rate", "setting": "HEK-293T; 24 h, replicate number 2", "value": -0.22}, {"measurement": "Growth Rate", "setting": "U2OS; 0 h, replicate number 2", "value": 0.7}, {"measurement": "Growth Rate", "setting": "U2OS; 6 h, replicate number 1", "value": -0.2}, {"measurement": "Growth Rate", "setting": "U2OS; 6 h, replicate number 2", "value": -0.14}, {"measurement": "Growth Rate", "setting": "U2OS; 12 h, replicate number 1", "value": -0.23}, {"measurement": "Growth Rate", "setting": "U2OS; 12 h, replicate number 2", "value": -0.07}, {"measurement": "Growth Rate", "setting": "U2OS; 18 h, replicate number 1", "value": -0.23}, {"measurement": "Growth Rate", "setting": "U2OS; 18 h, replicate number 2", "value": -0.08}, {"measurement": "Growth Rate", "setting": "U2OS; 24 h, replicate number 1", "value": -0.17}, {"measurement": "Growth Rate", "setting": "U2OS; 24 h, replicate number 2", "value": -0.19}, {"measurement": "Growth Rate", "setting": "Fibroblast; 0 h, replicate number 2", "value": 0.77}, {"measurement": "Growth Rate", "setting": "Fibroblast; 6 h, replicate number 1", "value": -0.42}, {"measurement": "Growth Rate", "setting": "Fibroblast; 6 h, replicate number 2", "value": -0.39}, {"measurement": "Growth Rate", "setting": "Fibroblast; 12 h, replicate number 1", "value": -0.37}, {"measurement": "Growth Rate", "setting": "Fibroblast; 12 h, replicate number 2", "value": -0.36}, {"measurement": "Growth Rate", "setting": "Fibroblast; 18 h, replicate number 1", "value": -0.32}, {"measurement": "Growth Rate", "setting": "Fibroblast; 18 h, replicate number 2", "value": -0.29}, {"measurement": "Growth Rate", "setting": "Fibroblast; 24 h, replicate number 1", "value": -0.26}, {"measurement": "Growth Rate", "setting": "Fibroblast; 24 h, replicate number 2", "value": -0.29}]}
